Laboratory results: BindingDB's records for doi:10.1021/jm030603w (Purdue Pharma, 2005)
Values joined by “and” are separate entries in the source; they are usually repeats but may differ in a detail not shown here. Identical values can stand only once. Counter-ions that a name gives are not always drawn.

Legend:
Assay in all cases: PDE Activity Assay
[1] = target: cAMP-specific 3',5'-cyclic phosphodiesterase 4B (Homo sapiens, UniProt Q07343)
[2] = target: cAMP-specific 3',5'-cyclic phosphodiesterase 4A (Homo sapiens, UniProt P27815); details: pH 8; 22 °C
Chain of cAMP-specific 3',5'-cyclic phosphodiesterase 4A (P27815 whole entry): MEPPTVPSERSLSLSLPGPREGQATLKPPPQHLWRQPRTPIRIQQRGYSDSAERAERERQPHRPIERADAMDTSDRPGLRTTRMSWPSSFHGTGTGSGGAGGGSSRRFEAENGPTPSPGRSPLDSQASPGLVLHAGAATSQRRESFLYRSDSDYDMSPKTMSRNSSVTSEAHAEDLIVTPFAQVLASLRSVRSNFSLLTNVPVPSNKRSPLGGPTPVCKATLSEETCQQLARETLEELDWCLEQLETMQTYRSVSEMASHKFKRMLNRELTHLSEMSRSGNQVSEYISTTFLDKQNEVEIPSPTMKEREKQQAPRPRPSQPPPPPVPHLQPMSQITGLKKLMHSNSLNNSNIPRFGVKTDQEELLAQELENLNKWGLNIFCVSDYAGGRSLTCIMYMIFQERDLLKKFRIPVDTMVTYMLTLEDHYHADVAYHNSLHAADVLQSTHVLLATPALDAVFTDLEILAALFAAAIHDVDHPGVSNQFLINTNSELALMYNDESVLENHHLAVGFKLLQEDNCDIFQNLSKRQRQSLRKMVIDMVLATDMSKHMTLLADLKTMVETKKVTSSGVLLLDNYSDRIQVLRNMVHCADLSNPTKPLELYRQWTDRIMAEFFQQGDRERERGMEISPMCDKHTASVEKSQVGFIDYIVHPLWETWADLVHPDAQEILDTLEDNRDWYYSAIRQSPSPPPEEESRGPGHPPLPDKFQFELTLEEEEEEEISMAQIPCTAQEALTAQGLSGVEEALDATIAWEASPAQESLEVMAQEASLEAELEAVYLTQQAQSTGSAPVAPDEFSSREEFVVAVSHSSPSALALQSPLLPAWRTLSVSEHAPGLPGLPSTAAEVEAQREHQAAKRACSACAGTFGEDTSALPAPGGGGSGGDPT

[3] = target: cAMP-specific 3',5'-cyclic phosphodiesterase 4D (Homo sapiens, UniProt Q08499)
Chain of cAMP-specific 3',5'-cyclic phosphodiesterase 4D (Q08499 whole entry): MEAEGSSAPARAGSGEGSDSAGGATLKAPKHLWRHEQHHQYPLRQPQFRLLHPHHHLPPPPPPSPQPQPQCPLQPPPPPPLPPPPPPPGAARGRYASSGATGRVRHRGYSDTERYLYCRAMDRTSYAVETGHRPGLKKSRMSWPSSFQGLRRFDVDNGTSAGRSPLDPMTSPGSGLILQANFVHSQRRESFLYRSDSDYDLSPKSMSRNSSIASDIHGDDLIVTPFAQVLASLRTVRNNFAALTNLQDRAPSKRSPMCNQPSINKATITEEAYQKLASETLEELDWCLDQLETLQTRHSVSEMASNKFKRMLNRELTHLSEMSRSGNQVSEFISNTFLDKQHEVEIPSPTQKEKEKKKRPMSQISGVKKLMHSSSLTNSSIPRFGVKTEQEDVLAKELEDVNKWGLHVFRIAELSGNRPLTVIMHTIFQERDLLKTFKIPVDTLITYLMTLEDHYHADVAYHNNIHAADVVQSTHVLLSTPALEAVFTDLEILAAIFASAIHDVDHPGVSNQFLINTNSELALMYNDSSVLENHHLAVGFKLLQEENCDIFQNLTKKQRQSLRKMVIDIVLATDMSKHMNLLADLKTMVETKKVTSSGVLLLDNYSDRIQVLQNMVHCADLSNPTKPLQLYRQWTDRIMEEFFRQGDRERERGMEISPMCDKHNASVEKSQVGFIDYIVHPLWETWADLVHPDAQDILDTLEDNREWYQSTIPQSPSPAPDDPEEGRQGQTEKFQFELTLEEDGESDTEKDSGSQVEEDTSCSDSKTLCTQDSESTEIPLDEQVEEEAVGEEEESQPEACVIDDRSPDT

Chain of cAMP-specific 3',5'-cyclic phosphodiesterase 4B (Q07343 whole entry): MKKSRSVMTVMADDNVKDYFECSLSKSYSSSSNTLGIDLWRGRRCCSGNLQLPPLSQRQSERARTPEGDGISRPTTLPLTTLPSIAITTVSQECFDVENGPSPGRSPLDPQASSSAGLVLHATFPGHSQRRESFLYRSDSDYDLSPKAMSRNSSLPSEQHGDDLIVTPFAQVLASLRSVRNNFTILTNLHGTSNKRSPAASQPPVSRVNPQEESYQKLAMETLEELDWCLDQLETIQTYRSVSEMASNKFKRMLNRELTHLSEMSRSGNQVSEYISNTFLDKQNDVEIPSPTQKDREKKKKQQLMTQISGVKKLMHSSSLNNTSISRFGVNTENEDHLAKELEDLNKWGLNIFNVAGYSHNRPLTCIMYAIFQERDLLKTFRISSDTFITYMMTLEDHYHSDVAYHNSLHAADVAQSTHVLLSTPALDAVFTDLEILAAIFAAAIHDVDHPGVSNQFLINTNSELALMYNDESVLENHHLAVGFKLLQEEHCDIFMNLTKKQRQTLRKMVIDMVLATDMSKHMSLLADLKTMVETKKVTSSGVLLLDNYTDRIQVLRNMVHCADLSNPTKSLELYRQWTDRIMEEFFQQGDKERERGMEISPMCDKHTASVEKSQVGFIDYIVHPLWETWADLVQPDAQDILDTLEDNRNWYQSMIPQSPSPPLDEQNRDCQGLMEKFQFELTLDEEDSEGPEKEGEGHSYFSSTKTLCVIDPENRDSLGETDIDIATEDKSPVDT

Ki [1]	Ki [2]	Ki [3]	Compound
71.3 nM	1190 nM	–	COc1ccc(Cn2cnc(N)c3nc(C(C)(C)OCc4ccc(C#N)cc4)nc2-3)cc1OC1CCCC1 [3-(3-Cyclopentyloxy-4-methoxy-benzyl)-8-[1-(4-cyano-benzyloxy)-1-methyl-ethyl]-3Hpurin-6-ylamine]
430 nM	5200 nM	–	COc1ccc(COC(C)c2nc3c(N)ncn(Cc4ccc(OC)c(OC5CCCC5)c4)c-3n2)cc1 (stereo not given) [3-(3-Cyclopentyloxy-4-methoxy-benzyl)-8-[1-(4-methoxy-benzyloxy)-ethyl]-3H-purin-6-ylamine]
9.8 nM	206 nM	–	COc1ccc(Cn2cnc(N)c3nc(C(C)(C)OCc4ccc(C)cc4)nc2-3)cc1OC1CCCC1 [3-(3-Cyclopentyloxy-4-methoxy-benzyl)-8-[1-(4-methyl-benzyloxy)-1-methyl-ethyl]-3H-purin-6-ylamine]
5.8 nM	175 nM	–	COc1ccc(Cn2cnc(N)c3nc(C(C)(C)OCc4ccc(C(C)(C)C)cc4)nc2-3)cc1OC1CCCC1 [3-(3-Cyclopentyloxy-4-methoxy-benzyl)-8-[1-(4-tert-butyl-benzyloxy)-1-methyl-ethyl]-3Hpurin-6-ylamine]
26.6 nM	415 nM	–	COc1ccc(Cn2cnc(N)c3nc(C(C)(C)OCc4ccc(OC(F)(F)F)cc4)nc2-3)cc1OC1CCCC1 [3-{[3-(cyclopentyloxy)-4-methoxyphenyl]methyl}-8-(2-{[4-(trifluoromethoxy)phenyl]methoxy}propan-2-yl)-3H-purin-6-amine]
33 nM	309 nM	–	COc1ccc(Cn2cnc(N)c3nc(C(C)(C)OCc4ccc(C(F)(F)F)cc4)nc2-3)cc1OC1CCCC1 [3-{[3-(cyclopentyloxy)-4-methoxyphenyl]methyl}-8-(2-{[4-(trifluoromethyl)phenyl]methoxy}propan-2-yl)-3H-purin-6-amine]
269 nM	3390 nM	–	COc1ccc(Cn2cnc(N)c3nc(C(C)OCc4ccc(F)cc4)nc2-3)cc1OC1CCCC1 (stereo not given) [3-{[3-(cyclopentyloxy)-4-methoxyphenyl]methyl}-8-{1-[(4-fluorophenyl)methoxy]ethyl}-3H-purin-6-amine]
13 nM	175 nM	–	COc1cccc(COC(C)(C)c2nc3c(N)ncn(Cc4ccc(OC)c(OC5CCCC5)c4)c-3n2)c1 [3-{[3-(cyclopentyloxy)-4-methoxyphenyl]methyl}-8-{2-[(3-methoxyphenyl)methoxy]propan-2-yl}-3H-purin-6-amine]
10.3 nM	113 nM	–	COc1ccc(COC(C)(C)c2nc3c(N)ncn(Cc4ccc(OC)c(OC5CCCC5)c4)c-3n2)cc1 [3-{[3-(cyclopentyloxy)-4-methoxyphenyl]methyl}-8-{2-[(4-methoxyphenyl)methoxy]propan-2-yl}-3H-purin-6-amine]
533 nM	15200 nM	4450 nM and 640 nM and 590 nM	COc1ccc(Cn2cnc(N)c3nc(C(C)OCc4ccccc4)nc2-3)cc1OC1CCCC1 (stereo not given) [8-[1-(benzyloxy)ethyl]-3-{[3-(cyclopentyloxy)-4-methoxyphenyl]methyl}-3H-purin-6-amine]
11 nM	126 nM	–	COc1ccc(Cn2cnc(N)c3nc(C(C)(C)OCc4ccc(Cl)cc4)nc2-3)cc1OC1CCCC1 [8-{1-[(4-Chlorobenzyl)oxy]-1-methyl-ethyl}-3-[3-cyclopentyloxy)-4-methoxybenzyl]-3H-purin-6-amine]

Further lines, the molecule ahead of its results:

Compound	Ki [1]	Ki [2]	Ki [3]
COc1ccccc1COC(C)(C)c1nc2c(N)ncn(Cc3ccc(OC)c(OC4CCCC4)c3)c-2n1 [3-(3-Cyclopentyloxy-4-methoxy-benzyl)-8-[1-(2-methoxy-benzyloxy)-1-methyl-ethyl]-3H-purine-6-ylamine]	11 nM	137 nM	–
COc1ccc(Cn2cnc(N)c3nc(C(C)(C)OCc4ccc(F)c(F)c4)nc2-3)cc1OC1CCCC1 [3-(3-Cyclopentyloxy-4-methoxy-benzyl)-8-[1-(3,4-difluoro-benzyloxy)-1-methyl-ethyl]-3Hpurin-6-ylamine Fumarate]	17.3 nM	244 nM	–
COc1ccc(COC(C)(C)c2nc3c(N)ncn(Cc4ccc(OC)c(OC5CCCC5)c4)c-3n2)cc1OC [3-(3-Cyclopentyloxy-4-methoxy-benzyl)-8-[1-(3,4-dimethoxy-benzyloxy)-1-methyl-ethyl]-3Hpurin-6-ylamine Fumarate]	42.8 nM	405 nM	–
COc1ccc(Cn2cnc(N)c3nc(C(C)(C)OCc4ccc5c(c4)OCO5)nc2-3)cc1OC1CCCC1 [3-(3-Cyclopentyloxy-4-methoxy-benzyl)-8-[1-(3,4-methylenedioxy-benzyloxy)-1-methyl-ethyl]-3Hpurin-6-ylamine]	21.4 nM	147 nM	–
COc1ccc(Cn2cnc(N)c3nc(C(C)(C)OCc4cccc(F)c4)nc2-3)cc1OC1CCCC1 [3-(3-Cyclopentyloxy-4-methoxy-benzyl)-8-[1-(3-fluoro-benzyloxy)-1-methyl-ethyl]-3H-purin-6-ylamine]	11.6 nM	208 nM	–
COc1ccc(Cn2cnc(N)c3nc(C(C)(C)COc4cccs4)nc2-3)cc1OC1CCCC1 [3-{[3-(cyclopentyloxy)-4-methoxyphenyl]methyl}-8-[2-methyl-1-(thiophen-2-yloxy)propan-2-yl]-3H-purin-6-amine]	46.9 nM	236 nM	–
COc1ccc(Cn2cnc(N)c3nc(C(C)(C)COc4ccsc4)nc2-3)cc1OC1CCCC1 [3-{[3-(cyclopentyloxy)-4-methoxyphenyl]methyl}-8-[2-methyl-1-(thiophen-3-yloxy)propan-2-yl]-3H-purin-6-amine]	9.5 nM	223 nM	–
COc1ccc(Cn2cnc(N)c3nc(C(C)(C)OCc4ccccc4F)nc2-3)cc1OC1CCCC1 [3-{[3-(cyclopentyloxy)-4-methoxyphenyl]methyl}-8-{2-[(2-fluorophenyl)methoxy]propan-2-yl}-3H-purin-6-amine]	18.9 nM	271 nM	–
COc1ccc(Cn2cnc(N)c3nc(C(C)(C)OCc4ccc(Cl)c(Cl)c4)nc2-3)cc1OC1CCCC1 [3-{[3-(cyclopentyloxy)-4-methoxyphenyl]methyl}-8-{2-[(3,4-dichlorophenyl)methoxy]propan-2-yl}-3H-purin-6-amine]	9.7 nM	166 nM	–
COc1ccc(Cn2cnc(N)c3nc(C(C)(C)OCc4ccccc4)nc2-3)cc1OC1CCCC1 [8-[2-(benzyloxy)propan-2-yl]-3-{[3-(cyclopentyloxy)-4-methoxyphenyl]methyl}-3H-purin-6-amine hydrochloride]	8.9 nM	179 nM	–
COc1cc(COC(C)(C)c2nc3c(N)ncn(Cc4ccc(OC)c(OC5CCCC5)c4)c-3n2)cc(OC)c1 [(2E)-but-2-enedioic acid; 3-{[3-(cyclopentyloxy)-4-methoxyphenyl]methyl}-8-{2-[(3,5-dimethoxyphenyl)methoxy]propan-2-yl}-3H-purin-6-amine]	21.9 nM	225 nM	–
